Assays:
[1] = biological target: T1, human skeletal muscle Na^+ channel subunit (Homo sapiens, UniProt P35499); assay: Na^+ current recordings in HEK-293 cells stably expressing human skeletal muscle Na^+ channel subunit; assay type: cell-based
T1 construct: expressed in transfected cells
Protocol: The relative in vitro potency of these compounds were determined by their ability to inhibit human skeletal muscle Na^+ channel subunit stable expressed in HEK-293 cells. The techniques employed for Na^+ current recordings and analysis with the use of this cell line were similar to that described in example 36. These studies employ depolarizing prepulses of varying duration to allow drugs to bind, a brief (5 ms) repolarizing step to reprime unbound channels, followed by the test pulse (5 ms) to measure what proportion of channels are inhibited. The reduction in peak currents is then plotted as a function of prepulse duration and the time constant (τ) measured by monoexponential fit. A plot of 1/τ as a function of antagonist concentration then allows the macroscopic binding rates of the antagonists to be calculated. The anticonvulsant activities of additional compounds of the present invention were determined as described in example 38.

[2] = test system: site 2 of the Na^+ channel; assay type: binding, rat
[3] = test system: voltage-sensitive Na^+ channels; assay: Electrophysiological assay: patch-clamp recordings of voltage-sensitive Na^+ currents in acutely dissociated hippocampal neurons; assay type: cell-based, rat
Protocol: Electrophysiological Assay:
Cell preparation: Acute cultures of rat hippocampal neurons were prepared daily using a modification of procedures described previously (Kuo and Bean, Mol. Pharm. 46:716-725 (1994)). Briefly, hippocampi were isolated from 3-11 day old rat pup brains (Sprague-Dawley; Charles River) and were sectioned, by hand, into 0.5-1 mm thick transverse slices (Whittemore and Koerner, Eur. J. Pharm. 192:435-438 (1991)). Slices were incubated for at least 30 min at room temperature (20-24° C.) in an oxygenated medium (124 mM NaCl, 3.3 mM KCl, 2.4 mM MgSO4, 2.5 mM CaCl2, 1.2 mM KH2PO4, 26 mM NaHCO3, pH =7.4) continuously bubbled with 5% CO2/95% O2. […]
Patch-clamp recordings of voltage-sensitive Na^+ currents: Whole-cell voltage-clamp recordings were made using conventional patch-clamp technique (Hamill et al., Pfluegers Arch. 391:85-100 (1981)) with an Axopatch 200A amplifier (Axon Instruments, Foster City, Calif.). […] Currents were recorded at room temperature (22-25° C.), filtered at 5 kHz with 4-pole Bessel filter, digitized at 20-50-μs intervals, and stored using Digidata 1200 analog/digital interface with Pclamp6/Clampex software (Axon Instruments). […] The inhibitory potency of drugs was assessed by measuring reductions in the peak amplitude of Na^+ currents induced by increasing concentrations of compounds tested. […]

T1 sequence (P35499 whole entry): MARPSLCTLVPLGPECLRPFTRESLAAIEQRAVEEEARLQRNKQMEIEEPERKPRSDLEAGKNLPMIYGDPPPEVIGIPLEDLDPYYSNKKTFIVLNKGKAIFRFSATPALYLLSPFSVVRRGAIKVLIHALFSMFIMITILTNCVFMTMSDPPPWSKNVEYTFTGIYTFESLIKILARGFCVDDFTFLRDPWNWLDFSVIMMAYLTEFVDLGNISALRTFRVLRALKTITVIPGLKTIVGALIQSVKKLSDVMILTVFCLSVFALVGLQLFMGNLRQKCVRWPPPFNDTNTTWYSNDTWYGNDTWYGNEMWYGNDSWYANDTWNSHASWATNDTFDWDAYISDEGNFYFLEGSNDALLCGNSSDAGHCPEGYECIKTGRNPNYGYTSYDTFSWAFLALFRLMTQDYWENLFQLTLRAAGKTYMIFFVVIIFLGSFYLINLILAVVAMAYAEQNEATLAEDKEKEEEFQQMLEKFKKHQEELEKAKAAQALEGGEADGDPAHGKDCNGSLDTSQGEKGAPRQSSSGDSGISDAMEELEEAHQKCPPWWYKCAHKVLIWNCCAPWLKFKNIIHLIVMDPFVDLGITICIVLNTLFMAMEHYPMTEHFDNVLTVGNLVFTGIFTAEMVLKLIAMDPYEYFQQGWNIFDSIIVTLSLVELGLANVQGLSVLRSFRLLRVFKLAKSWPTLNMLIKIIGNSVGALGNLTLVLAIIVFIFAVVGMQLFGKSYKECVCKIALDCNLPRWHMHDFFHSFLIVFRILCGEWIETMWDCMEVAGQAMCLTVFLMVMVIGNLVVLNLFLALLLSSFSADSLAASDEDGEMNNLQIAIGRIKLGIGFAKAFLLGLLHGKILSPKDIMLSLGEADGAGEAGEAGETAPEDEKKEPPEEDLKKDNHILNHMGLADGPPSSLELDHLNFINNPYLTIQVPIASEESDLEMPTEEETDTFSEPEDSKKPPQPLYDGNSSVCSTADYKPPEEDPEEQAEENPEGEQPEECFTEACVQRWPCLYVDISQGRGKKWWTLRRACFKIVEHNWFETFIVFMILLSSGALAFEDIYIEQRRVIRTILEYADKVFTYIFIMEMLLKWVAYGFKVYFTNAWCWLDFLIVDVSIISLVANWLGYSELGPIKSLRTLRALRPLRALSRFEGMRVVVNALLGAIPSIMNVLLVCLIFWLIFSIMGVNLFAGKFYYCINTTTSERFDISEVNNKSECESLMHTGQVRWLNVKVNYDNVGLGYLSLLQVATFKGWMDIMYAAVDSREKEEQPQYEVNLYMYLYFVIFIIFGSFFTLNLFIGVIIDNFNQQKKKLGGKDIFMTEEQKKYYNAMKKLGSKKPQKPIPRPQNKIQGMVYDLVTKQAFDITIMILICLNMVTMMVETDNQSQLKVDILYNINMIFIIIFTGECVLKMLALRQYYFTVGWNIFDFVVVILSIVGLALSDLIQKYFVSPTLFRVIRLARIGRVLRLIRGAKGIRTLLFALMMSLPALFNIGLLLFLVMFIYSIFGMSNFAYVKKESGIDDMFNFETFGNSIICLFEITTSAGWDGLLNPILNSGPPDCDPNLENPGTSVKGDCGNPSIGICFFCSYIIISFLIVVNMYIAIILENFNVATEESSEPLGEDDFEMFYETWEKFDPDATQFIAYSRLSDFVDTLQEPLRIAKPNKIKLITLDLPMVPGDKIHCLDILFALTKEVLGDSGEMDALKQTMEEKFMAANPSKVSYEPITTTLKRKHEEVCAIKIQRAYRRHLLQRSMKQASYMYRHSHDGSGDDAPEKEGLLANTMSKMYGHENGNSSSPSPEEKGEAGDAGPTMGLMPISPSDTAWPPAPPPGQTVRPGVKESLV

| SMILES | melting point [°C] | also measured |
| --- | --- | --- |
| NC(=O)NN=Cc1ccc(Cc2ccccc2)cc1 [Example 33b, 4-Benzylbenzaldehyde semicarbazone] | 118 to 120 |  |
| NC(=O)NN=Cc1ccc(Oc2ccc(Cl)cc2F)cc1 [4-(2-Fluoro-4-chlorophenoxy)benzaldehyde semicarbazone] | 218 to 220 | HsmNa^+ Ki [1]: 0.06 µM |
| NC1=N[C@H](O)[C@H]2[C@H]3O[C@]4(O)O[C@@H]([C@@H](O)[C@@]2(N1)[C@@H]4O)[C@]3(O)CO [Tetrodotoxin] |  | IC50 [2]: > 100 µM |
| NC(=O)NN=Cc1ccc(Oc2ccc3c(c2)CCC3)cc1 [4-(5-indanoxy)benzaldehyde semicarbazone, 4-(5-Indanoxy)benzaldehyde semicarbazone] |  | HsmNa^+ Ki [1]: 0.04 µM |
| NC(=O)NN=Cc1ccc(Oc2ccc(F)cc2)cc1 [4-(4-Fluorophenoxy) benzaldehyde semicarbazone] |  | effect on the overall shape of the Na^+ channel current-voltage relationship ([3]; measured at peak current): little effect |
| NC(=O)NN=Cc1ccc(Oc2ccc(C(F)(F)F)cc2)cc1 [Example 34c, 4-(4-Trifluoromethylphenoxy)benzaldehyde semicarbazone] | 119 to 122 |  |
| NC(=O)NN=Cc1ccc(Oc2ccc([N+](=O)[O-])cc2)cc1 [Example 15, 4-(4-Nitrophenoxy)benzaldehyde semicarbazone] | 221 to 222 |  |
| CN(N=Cc1ccc(Oc2ccc(F)cc2)c(F)c1)C(N)=O [4-(4-Fluorophenoxy)-3-fluorobenzaldehyde 2′-methylsemicarbazone] | 169 to 172 |  |
| CCCCCC(CC)Oc1ccc(C=NNC(N)=O)cc1 (stereo not shown) [Example 32b, 4-(3-Octoxy)benzaldehyde semicarbazone] | 45 |  |
| NC(=O)NN=Cc1ccc(OC2CCOCC2)cc1 [Example 12, 4-(4-Tetrahydropyranoxy)benzaldehyde semicarbazone] | 208 to 209 |  |
| NC(=O)NN=Cc1ccc(OCC2CCCCC2)cc1 [Example 10, 4-(Cyclohexylmethoxy)benzaldehyde semicarbazone] | 218 to 219 |  |
| NC(=O)NN=Cc1ccc(Oc2ccc(F)cc2)cc1 [4-(4-fluorophenoxy)benzaldehyde semicarbazone] |  | inhibition of voltage-gated Na^+ currents ([3]; acutely dissociated rat hippocampal neurons): dose-dependent inhibition |

Source: patent publication US6638947B2, “Carbocyclic and heterocyclic substituted semicarbazones and thiosemicarbazones and the use thereof” (Euro-Celtique S.A., priority 1997, dated 2003)
